Source: publication PMC9005681, “Use of AD Informer Set compounds to explore validity of novel targets in Alzheimer's disease pathology” (Alzheimer's & Dementia : Translational Research & Clinical …, 2022)
“And” between values parts separate entries of the source, which are not always exact repeats. Identical values can stand only once.

Columns and labels:
cellular system = tested on: cellular system; set-up: method as in column References for potency and dosing (the 5th table c13); conditions: published data; References for potency and dosing; cited from earlier work
[1] = molecular target: T1, cloned human or rodent CNS receptors, channels, and transporters (PDSP panel) (Homo sapiens, UniProt P47898); experiment: PDSP GPCR panel primary binding assays at 10 μM; conditions: 5-HT5A, primary assay; for Mean %: mean inhibition; for Inhibition 1: replicate 1; for Inhibition 2: replicate 2; for Inhibition 3: replicate 3; for Inhibition 4: replicate 4
T1 construct: expressed in transfected cells
T1 sequence (P47898 whole entry): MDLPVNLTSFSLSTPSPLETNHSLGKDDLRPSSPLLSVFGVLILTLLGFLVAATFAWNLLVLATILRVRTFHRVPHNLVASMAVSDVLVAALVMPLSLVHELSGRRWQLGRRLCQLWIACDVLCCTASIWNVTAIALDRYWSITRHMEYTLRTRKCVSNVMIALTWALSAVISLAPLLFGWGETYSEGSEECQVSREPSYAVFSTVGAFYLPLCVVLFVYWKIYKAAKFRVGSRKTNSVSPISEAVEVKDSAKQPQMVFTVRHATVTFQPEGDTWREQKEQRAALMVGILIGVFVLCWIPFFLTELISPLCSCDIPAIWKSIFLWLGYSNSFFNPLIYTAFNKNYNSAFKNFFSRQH
Method: (§1) GPCR panel: Screening against the receptors within the PDSP panel offers an assessment of off-target pharmacological activity at cloned human or rodent CNS receptors, channels, and transporters that could confound CNS-related phenotypes. A total of 46–47 primary binding assays were run in quadruplicate on these compounds at 10 μM, with follow-up secondary binding assays in 11-point dose-response in triplicate for select compounds versus select receptors. Secondary binding assays were executed for all receptors where test compound displaced an average of >50% of radio-labeled standard ligand. As an exception, no secondary assays were carried out for H3, PBR, or GABAA. […]

[2] = molecular target: T2, cloned human or rodent CNS receptors, channels, and transporters (PDSP panel) (Homo sapiens, UniProt P21728); experiment: PDSP GPCR panel primary binding assays at 10 μM; conditions: D1, primary assay; for Mean %: mean inhibition; for Inhibition 1: replicate 1; for Inhibition 2: replicate 2; for Inhibition 3: replicate 3; for Inhibition 4: replicate 4
T2 construct: expressed in transfected cells
T2 sequence (P21728 whole entry): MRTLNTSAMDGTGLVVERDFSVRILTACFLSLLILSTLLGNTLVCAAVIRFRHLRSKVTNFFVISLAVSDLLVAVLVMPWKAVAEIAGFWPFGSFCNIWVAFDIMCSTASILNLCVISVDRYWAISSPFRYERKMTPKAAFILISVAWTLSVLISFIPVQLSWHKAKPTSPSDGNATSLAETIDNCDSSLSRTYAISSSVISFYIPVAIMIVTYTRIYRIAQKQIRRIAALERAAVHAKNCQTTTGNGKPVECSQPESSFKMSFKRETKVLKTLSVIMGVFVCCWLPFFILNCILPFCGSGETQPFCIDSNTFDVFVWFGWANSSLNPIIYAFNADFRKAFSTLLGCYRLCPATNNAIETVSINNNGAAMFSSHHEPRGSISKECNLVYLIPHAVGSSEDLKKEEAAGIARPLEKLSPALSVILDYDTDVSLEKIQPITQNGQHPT
Method: as §1

[3] = molecular target: T3, cloned human or rodent CNS receptors, channels, and transporters (PDSP panel) (Homo sapiens, UniProt P08172); experiment: PDSP GPCR panel primary binding assays at 10 μM; conditions: M2, primary assay; for Mean %: mean inhibition; for Inhibition 1: replicate 1; for Inhibition 2: replicate 2; for Inhibition 3: replicate 3; for Inhibition 4: replicate 4
T3 construct: expressed in transfected cells
T3 sequence (P08172 1-466): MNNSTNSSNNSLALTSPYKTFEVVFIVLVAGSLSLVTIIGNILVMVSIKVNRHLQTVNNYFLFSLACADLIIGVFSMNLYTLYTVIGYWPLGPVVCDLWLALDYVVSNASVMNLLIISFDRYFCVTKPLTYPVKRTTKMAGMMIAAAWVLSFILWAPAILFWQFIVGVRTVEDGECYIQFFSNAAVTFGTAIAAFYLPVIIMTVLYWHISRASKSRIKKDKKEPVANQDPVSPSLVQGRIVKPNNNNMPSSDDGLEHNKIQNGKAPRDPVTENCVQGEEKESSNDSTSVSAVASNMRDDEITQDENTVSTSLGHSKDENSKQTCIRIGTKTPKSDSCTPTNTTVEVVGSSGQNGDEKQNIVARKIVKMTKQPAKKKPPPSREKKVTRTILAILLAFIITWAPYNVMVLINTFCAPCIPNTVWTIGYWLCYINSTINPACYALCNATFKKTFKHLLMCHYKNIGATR
Method: as §1

[4] = molecular target: T4, cloned human or rodent CNS receptors, channels, and transporters (PDSP panel) (Homo sapiens, UniProt P34969); experiment: PDSP GPCR panel primary binding assays at 10 μM; conditions: 5-HT7A, primary assay; for Mean %: mean inhibition; for Inhibition 1: replicate 1; for Inhibition 2: replicate 2; for Inhibition 3: replicate 3; for Inhibition 4: replicate 4
T4 construct: expressed in transfected cells
T4 sequence (P34969 whole entry): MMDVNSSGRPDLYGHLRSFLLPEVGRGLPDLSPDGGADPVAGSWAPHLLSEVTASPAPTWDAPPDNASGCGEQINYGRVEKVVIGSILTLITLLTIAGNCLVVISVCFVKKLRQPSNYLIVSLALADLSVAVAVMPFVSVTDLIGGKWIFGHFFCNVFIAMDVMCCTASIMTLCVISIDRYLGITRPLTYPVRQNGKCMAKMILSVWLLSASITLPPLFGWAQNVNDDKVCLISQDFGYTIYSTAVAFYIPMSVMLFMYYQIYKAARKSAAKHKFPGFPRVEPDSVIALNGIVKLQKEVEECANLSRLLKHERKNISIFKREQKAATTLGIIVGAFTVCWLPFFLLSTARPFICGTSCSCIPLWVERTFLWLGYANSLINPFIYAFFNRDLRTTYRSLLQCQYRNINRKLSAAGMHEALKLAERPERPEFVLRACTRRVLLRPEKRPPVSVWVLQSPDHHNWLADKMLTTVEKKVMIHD
Method: as §1

[5] = molecular target: T5, cloned human or rodent CNS receptors, channels, and transporters (PDSP panel) (Homo sapiens, UniProt P41595); experiment: PDSP GPCR panel primary binding assays at 10 μM; conditions: 5-HT2B, primary assay; for Mean %: mean inhibition; for Inhibition 1: replicate 1; for Inhibition 2: replicate 2; for Inhibition 3: replicate 3; for Inhibition 4: replicate 4
T5 construct: expressed in transfected cells
T5 sequence (P41595 whole entry): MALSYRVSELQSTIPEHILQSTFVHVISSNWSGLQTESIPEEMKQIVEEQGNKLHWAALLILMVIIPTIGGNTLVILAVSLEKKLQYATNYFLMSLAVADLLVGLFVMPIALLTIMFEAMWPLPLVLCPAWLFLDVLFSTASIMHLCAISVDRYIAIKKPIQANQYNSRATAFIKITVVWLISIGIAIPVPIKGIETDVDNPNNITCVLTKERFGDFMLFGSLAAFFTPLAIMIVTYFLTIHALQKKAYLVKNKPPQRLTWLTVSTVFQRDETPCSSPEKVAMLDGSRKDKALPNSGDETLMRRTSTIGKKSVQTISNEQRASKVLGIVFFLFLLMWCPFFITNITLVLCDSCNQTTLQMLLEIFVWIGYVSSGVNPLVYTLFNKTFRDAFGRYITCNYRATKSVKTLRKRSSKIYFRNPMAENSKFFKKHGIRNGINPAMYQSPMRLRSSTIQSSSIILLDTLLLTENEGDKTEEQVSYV
Method: as §1

[6] = molecular target: T6, cloned human or rodent CNS receptors, channels, and transporters (PDSP panel) (Homo sapiens, UniProt P28221); experiment: PDSP GPCR panel primary binding assays at 10 μM; conditions: 5-HT1D, primary assay; for Mean %: mean inhibition; for Inhibition 1: replicate 1; for Inhibition 2: replicate 2; for Inhibition 3: replicate 3; for Inhibition 4: replicate 4
T6 construct: expressed in transfected cells
T6 sequence (P28221 whole entry): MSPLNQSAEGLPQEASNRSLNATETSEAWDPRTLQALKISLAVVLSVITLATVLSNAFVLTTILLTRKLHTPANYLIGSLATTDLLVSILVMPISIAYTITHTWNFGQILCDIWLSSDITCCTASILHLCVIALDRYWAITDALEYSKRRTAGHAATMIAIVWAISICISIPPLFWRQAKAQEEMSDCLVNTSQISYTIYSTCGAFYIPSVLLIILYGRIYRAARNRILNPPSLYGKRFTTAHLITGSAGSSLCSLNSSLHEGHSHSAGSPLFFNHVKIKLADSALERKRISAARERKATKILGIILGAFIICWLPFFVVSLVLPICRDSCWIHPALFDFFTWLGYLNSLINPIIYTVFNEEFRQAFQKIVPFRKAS
Method: as §1

[7] = molecular target: T7, cloned human or rodent CNS receptors, channels, and transporters (PDSP panel) (Homo sapiens, UniProt P35372); experiment: PDSP GPCR panel primary binding assays at 10 μM; conditions: MOR, primary assay; for Mean %: mean inhibition; for Inhibition 1: replicate 1; for Inhibition 2: replicate 2; for Inhibition 3: replicate 3; for Inhibition 4: replicate 4
T7 construct: expressed in transfected cells
T7 sequence (P35372 whole entry): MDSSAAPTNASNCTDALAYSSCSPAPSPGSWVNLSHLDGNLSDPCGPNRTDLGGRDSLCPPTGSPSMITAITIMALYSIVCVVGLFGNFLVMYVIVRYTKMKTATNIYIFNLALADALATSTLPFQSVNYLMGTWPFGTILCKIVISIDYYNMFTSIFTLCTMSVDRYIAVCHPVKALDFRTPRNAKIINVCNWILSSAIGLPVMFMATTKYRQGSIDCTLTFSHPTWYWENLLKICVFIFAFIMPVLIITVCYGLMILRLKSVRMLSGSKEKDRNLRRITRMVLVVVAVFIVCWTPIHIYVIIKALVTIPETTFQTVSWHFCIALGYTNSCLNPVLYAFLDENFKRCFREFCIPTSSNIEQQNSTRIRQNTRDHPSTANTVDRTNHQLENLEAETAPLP
Method: as §1

[8] = molecular target: T8, cloned human or rodent CNS receptors, channels, and transporters (PDSP panel) (Homo sapiens, UniProt P46098); experiment: PDSP GPCR panel primary binding assays at 10 μM; conditions: 5-HT3, primary assay; for Mean %: mean inhibition; for Inhibition 1: replicate 1; for Inhibition 2: replicate 2; for Inhibition 3: replicate 3; for Inhibition 4: replicate 4
T8 construct: expressed in transfected cells
T8 sequence (P46098 24-478): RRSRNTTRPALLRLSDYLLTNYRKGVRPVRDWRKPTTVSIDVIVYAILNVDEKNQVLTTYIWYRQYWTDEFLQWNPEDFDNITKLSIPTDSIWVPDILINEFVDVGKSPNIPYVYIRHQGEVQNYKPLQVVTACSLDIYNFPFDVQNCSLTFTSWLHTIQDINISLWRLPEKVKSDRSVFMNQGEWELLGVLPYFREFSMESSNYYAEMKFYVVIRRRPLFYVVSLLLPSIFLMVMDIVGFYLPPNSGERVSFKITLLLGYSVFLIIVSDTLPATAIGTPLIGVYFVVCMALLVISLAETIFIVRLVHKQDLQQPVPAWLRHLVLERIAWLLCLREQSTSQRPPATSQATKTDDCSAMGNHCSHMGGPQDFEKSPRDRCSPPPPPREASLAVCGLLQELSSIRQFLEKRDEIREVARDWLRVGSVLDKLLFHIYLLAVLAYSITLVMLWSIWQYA
Method: as §1

[9] = molecular target: T9, cloned human or rodent CNS receptors, channels, and transporters (PDSP panel) (Homo sapiens, UniProt P25021); experiment: PDSP GPCR panel primary binding assays at 10 μM; conditions: H2, primary assay; for Mean %: mean inhibition; for Inhibition 1: replicate 1; for Inhibition 2: replicate 2; for Inhibition 3: replicate 3; for Inhibition 4: replicate 4
T9 construct: expressed in transfected cells
T9 sequence (P25021 whole entry): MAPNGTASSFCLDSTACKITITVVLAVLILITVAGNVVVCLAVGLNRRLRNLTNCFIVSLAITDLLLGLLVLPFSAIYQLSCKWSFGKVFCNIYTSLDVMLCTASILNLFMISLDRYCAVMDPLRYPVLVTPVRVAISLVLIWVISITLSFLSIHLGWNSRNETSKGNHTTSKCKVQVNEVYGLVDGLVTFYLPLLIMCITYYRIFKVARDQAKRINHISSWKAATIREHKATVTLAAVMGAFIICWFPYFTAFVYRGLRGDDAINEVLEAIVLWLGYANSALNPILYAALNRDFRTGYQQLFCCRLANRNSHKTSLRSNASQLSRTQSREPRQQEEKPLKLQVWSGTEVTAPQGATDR
Method: as §1

[10] = molecular target: T10, cloned human or rodent CNS receptors, channels, and transporters (PDSP panel) (Homo sapiens, UniProt P23975); experiment: PDSP GPCR panel primary binding assays at 10 μM; conditions: NET, primary assay; for Mean %: mean inhibition; for Inhibition 1: replicate 1; for Inhibition 2: replicate 2; for Inhibition 3: replicate 3; for Inhibition 4: replicate 4
T10 construct: expressed in transfected cells
T10 sequence (P23975 whole entry): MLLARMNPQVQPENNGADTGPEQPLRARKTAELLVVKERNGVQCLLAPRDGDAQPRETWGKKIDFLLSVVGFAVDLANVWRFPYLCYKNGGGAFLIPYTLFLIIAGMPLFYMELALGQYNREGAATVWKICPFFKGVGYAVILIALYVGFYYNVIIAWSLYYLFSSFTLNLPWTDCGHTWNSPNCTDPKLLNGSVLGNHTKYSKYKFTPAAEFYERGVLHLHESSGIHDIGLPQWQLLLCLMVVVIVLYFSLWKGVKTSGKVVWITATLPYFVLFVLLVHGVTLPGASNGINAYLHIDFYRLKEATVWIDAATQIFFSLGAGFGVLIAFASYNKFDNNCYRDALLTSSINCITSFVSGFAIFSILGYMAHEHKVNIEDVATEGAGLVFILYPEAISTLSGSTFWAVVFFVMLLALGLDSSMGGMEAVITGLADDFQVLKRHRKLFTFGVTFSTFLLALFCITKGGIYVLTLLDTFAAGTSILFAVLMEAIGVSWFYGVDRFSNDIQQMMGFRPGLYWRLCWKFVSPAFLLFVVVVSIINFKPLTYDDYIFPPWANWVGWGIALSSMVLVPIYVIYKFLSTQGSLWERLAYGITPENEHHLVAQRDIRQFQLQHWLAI
Method: as §1

CCC(=O)N1CCC(NC(=O)Nc2ccc(OC(F)(F)F)cc2)CC1 [UNC10302681A, TPPU]
Reported as cell active (<10 μM) (cellular system): Y (Published data supports that the compound is active in a cellular system when dosed at 10 μM (Y/N))
Mean % [1]: -10.71% and -8.22%
Inhibition 1 [1]: 25.37% and 9.24%
Inhibition 2 [1]: -13.71% and -7.98%
Inhibition 3 [1]: -53.57% and -12.99%
Inhibition 4 [1]: -0.94% and -21.14%
Mean % [2]: -1.82%
Inhibition 1 [2]: -5.26%
Inhibition 2 [2]: -2.83%
Inhibition 3 [2]: -3.8%
Inhibition 4 [2]: 4.61%
Mean % [3]: -13.3%
Inhibition 1 [3]: -14.72%
Inhibition 2 [3]: -20.61%
Inhibition 3 [3]: -11.27%
Inhibition 4 [3]: -6.61%
Mean % [4]: 28.67%
Inhibition 1 [4]: 34.17%
Inhibition 2 [4]: 16.81%
Inhibition 3 [4]: 23.63%
Inhibition 4 [4]: 40.05%
Mean % [5]: 40.75%
Inhibition 1 [5]: 68.75%
Inhibition 2 [5]: 29.73%
Inhibition 3 [5]: 25.12%
Inhibition 4 [5]: 39.38%
Mean % [6]: 0.73%
Inhibition 1 [6]: 17.8%
Inhibition 2 [6]: -3.44%
Inhibition 3 [6]: -7.6%
Inhibition 4 [6]: -3.85%
Mean % [7]: 7.56%
Inhibition 1 [7]: 7.83%
Inhibition 2 [7]: 3.61%
Inhibition 3 [7]: 10.7%
Inhibition 4 [7]: 8.11%
Mean % [8]: 17.23%
Inhibition 1 [8]: 6.76%
Inhibition 2 [8]: 16.16%
Inhibition 3 [8]: 12.2%
Inhibition 4 [8]: 33.8%
Mean % [9]: -16.74%
Inhibition 1 [9]: -3.12%
Inhibition 2 [9]: -11.73%
Inhibition 3 [9]: -19.51%
Inhibition 4 [9]: -32.59%
Mean % [10]: 2.26% and 4.05%
Inhibition 1 [10]: -18.41% and 34.38%
Inhibition 2 [10]: -17.53% and 14.34%
Inhibition 3 [10]: 0.52% and -19%
Inhibition 4 [10]: 44.45% and -13.54%

MDL 28170 [UNC10302675A]
Reported as cell active (<10 μM) (cellular system): Y (Published data supports that the compound is active in a cellular system when dosed at 10 μM (Y/N))
Mean % [1]: -1.67%
Inhibition 1 [1]: -0.61%
Inhibition 2 [1]: -2.73%
Inhibition 3 [1]: -12.06%
Inhibition 4 [1]: 8.72%
Mean % [2]: -0.08%
Inhibition 1 [2]: 13.68%
Inhibition 2 [2]: 11.74%
Inhibition 3 [2]: -15.62%
Inhibition 4 [2]: -10.12%
Mean % [3]: 1.32%
Inhibition 1 [3]: -8.82%
Inhibition 2 [3]: -11.77%
Inhibition 3 [3]: 0.03%
Inhibition 4 [3]: 25.84%
Mean % [4]: 12.48%
Inhibition 1 [4]: 4.73%
Inhibition 2 [4]: 10.46%
Inhibition 3 [4]: 19.29%
Inhibition 4 [4]: 15.42%
Mean % [5]: -23.86%
Inhibition 1 [5]: -2.15%
Inhibition 2 [5]: -34.45%
Inhibition 3 [5]: -28.58%
Inhibition 4 [5]: -30.26%
Mean % [6]: 5%
Inhibition 1 [6]: 13.22%
Inhibition 2 [6]: 2.39%
Inhibition 3 [6]: 4.89%
Inhibition 4 [6]: -0.52%
Mean % [7]: -2.22%
Inhibition 1 [7]: 0.73%
Inhibition 2 [7]: -3.1%
Inhibition 3 [7]: -4.83%
Inhibition 4 [7]: -1.67%
Mean % [8]: -2.62%
Inhibition 1 [8]: -0.93%
Inhibition 2 [8]: 2.95%
Inhibition 3 [8]: -29.22%
Inhibition 4 [8]: 16.71%
Mean % [9]: -17.24%
Inhibition 1 [9]: -6.35%
Inhibition 2 [9]: -24.37%
Inhibition 3 [9]: -15.47%
Inhibition 4 [9]: -22.78%
Mean % [10]: 1.5% and 5.58%
Inhibition 1 [10]: 1.64% and 23.85%
Inhibition 2 [10]: -18.73% and 10.38%
Inhibition 3 [10]: -4.59% and 3.46%
Inhibition 4 [10]: 27.68% and -15.39%
